Test results: patent US6448280B1, “Angiotensin II antagonists against disorders associated with impaired neuronal conduction velocity, especially diabetic neuropathy” (Zeneca Limited, priority 1992, dated 2002)

What was measured:
Type in all cases: in vivo
[1] = test system: motor branches supplying the gastrocnemius muscle (sciatic nerve); assay: Motor nerve conduction velocity in streptozotocin-diabetic rats, sciatic branch to gastrocnemius; settings: streptozotocin-diabetic male rats; 50 mg/kg daily by gavage for one month, started after one month of diabetes; sciatic notch to knee
Description: (§1) Using an analogous method to that described by Cameron et al in Quarterlty Journal of Experimental Physiology, 1989, 74, 917-926, mature male rats were divided into non-diabetic animals (normal control group) and animals rendered diabetic (by administration of streptozotocin (40-45 mg/kg in 20 mmol/l sodium citrate buffer, pH 4.5, i.p.). The diabetic animals were further divided into two groups. After one month, the motor nerve conduction velocities in one of the diabetic groups (diabetic control group 1) were measured in vivo between the sciatic notch and the knee for motor branches supplying the gastrocnemius and tibialis anterior muscles of the calf using the procedures described by Cameron et al (ibid) (further details of the procedures are given in Experimental Neurology, 1986, 92, 757-761). Sensory nerve conduction velocity was also measured for diabetic control group 1 in the saphenous nerve between the groin and ankle (again using the method of Cameron et al (ibid)). The remaining group of diabetic animals was further divided into two groups. One of these groups was given daily 2-ethyl-4-[(2′-(1H-1,2,3,4-tetrazol-5-yl)biphenyl-4-yl)methoxy]quinoline hydrochloride (Compound A; 50 mg/kg) by gavage, the other group remaining untreated (diabetic control group 2). […]

[2] = test system: saphenous nerve; assay: Sensory nerve conduction velocity in streptozotocin-diabetic rats, saphenous nerve; settings: streptozotocin-diabetic male rats; 50 mg/kg daily by gavage for one month, started after one month of diabetes; groin to ankle
Description: as §1

[3] = test system: motor branches supplying the tibialis anterior muscle (sciatic nerve); assay: Motor nerve conduction velocity in streptozotocin-diabetic rats, sciatic branch to tibialis anterior; settings: streptozotocin-diabetic male rats; 50 mg/kg daily by gavage for one month, started after one month of diabetes; sciatic notch to knee
Description: as §1

CCc1cc(OCc2ccc(-c3ccccc3-c3nnn[nH]3)cc2)c2ccccc2n1.Cl [Compound A, 2-ethyl-4-[(2′-(1H-1,2,3,4-tetrazol-5-yl)biphenyl-4-yl)methoxy]quinoline hydrochloride]
Motor NCV Gastrocnemius [1]: 62.8 ± 0.9 m/s
Sensory NCV Saphenous [2]: 60.2 ± 1.1 m/s
Motor NCV Tibialis Anterior [3]: 60.3 ± 1.2 m/s
